These results are taken from patent US20100184790A1, “PYRROLO[2,3-B]PYRIDINE COMPOUNDS, AZAINDOLE COMPOUNDS USED FOR SYNTHESIZING SAID PYRROLO[2,3-B]PYRIDINE COMPOUNDS, METHODS FOR THE PRODUCTION THEREOF, AND USES THEREOF” (CENTRE NATIONAL DE LA RECHERCHE SCIENTIFIQUE, priority 2007, published 2010).

Read-outs that look alike come from different tables or passages of the source.

One data set deals with CDK1/cyclin B. Put plainly: CDK1/cyclin B kinase assay (histone H1, [γ-33P]-ATP). The conditions noted are these: read-out: IC50 CDK1/cyclin B, 15 μM ATP, 30° C.
In the next data set the target is GSK-3α/β. Put plainly: GSK-3α/β kinase assay (GS-1 peptide). Format: biochemical, porcine. The conditions noted are these: 15 μM ATP, 30° C. The protocol: After incubating at 30° C. for 30 (thirty) minutes, the 25 μl aliquots of the supernatant were treated as described above.
Another data set has as its target CDK5/p25 (Homo sapiens, UniProt Q00535). Put plainly: CDK5/p25 kinase assay. The class given is biochemical, mammalian. The protocol: CDK5/p25 was reconstituted by mixing equal amounts of recombinant mammalian CDK5 and p25 expressed in E. coli as GST (glutathione S-transferase) fusion protein and purified by affinity chromatography on glutathione-agarose (vectors provided by Doctor L. H. Tsai) (p25 is a truncated version of p35, the 35-kDa CDK5 activator). Its activity was assayed with histone H1 in buffer C as described for CDK1/cyclin B.

The next data set concerns SH-SY5Y cells. Put plainly: Cell survival, MTS reduction, SH-SY5Y. The conditions noted are these: Homo sapiens, Table 2, exposed for 24 hours, read-out: IC50 survival of SH-SY5Y cells (MTS reduction). Format: cell-based. The protocol:
The human neuroblastoma cell line SH-SY5Y was grown in a DMEM medium with L-glutamine originating from Invitrogen (Cergy Pontoise, France), antibiotics and 10% by volume of FCS originating from Invitrogen. […] These compounds were also tested at various concentrations with regard to their effects on SH-SY5Y and HEK293 cells. […] The IC50 values were calculated from the dose-response curves and are given in micromoles (mean±standard deviation of two independent measurements carried out in triplicate). […] The survival of the cells was estimated by the assaying of the degree of reduction of MTS induced by this exposure. […] The ICS© values were calculated from dose-response curves and are given in micromoles in table 3 below.

The next data set deals with T1, CDK2/cyclin A (Homo sapiens, UniProt P24941).
T1 construct: made in house; host or cells: insect cells
Put plainly: CDK2/cyclin A kinase assay. The conditions noted are these: 15 μM ATP, 30° C., histone H1; read-out: IC50 CDK2/cyclinA. The class given is biochemical. The protocol: CDK2/cyclin A (human, recombinant, expressed in insect cells) was assayed as described for CDK1/cyclin B.

For another data set, the target named is DYRK1A (Rattus norvegicus, UniProt Q63470). Put plainly: DYRK1A kinase assay (myelin basic protein). Format: biochemical.
Another data set deals with CK1δ/ε. Put plainly: CK1δ/ε kinase assay (CK1-specific peptide). Format: biochemical, porcine. The conditions noted are these: 15 μM ATP, 30° C. How it is done:
CK1δ/ε was purified from porcine brain by affinity chromatography on an immobilized axin fragment. It was assayed as described for CDK1 but using a CK1-specific peptide substrate.

A further data set has as its target T2, CDK9/cyclin T (Homo sapiens, UniProt P50750).
T2 construct: made in house; host or cells: insect cells
Put plainly: CDK9/cyclin T kinase assay. Format: biochemical. The conditions noted are these: 15 μM ATP, 30° C., pRB fragment.

Setting [1] is: 15 μM ATP, 30° C., histone H1, read-out: IC50 CDK5/p25.
The mark [2] stands for this setting: 15 μM ATP, 30° C., myelin basic protein, read-out: IC50 DYRK1A.

CDK5/p25, sequence (Q00535 whole entry, species assumed, the tested form may be a part): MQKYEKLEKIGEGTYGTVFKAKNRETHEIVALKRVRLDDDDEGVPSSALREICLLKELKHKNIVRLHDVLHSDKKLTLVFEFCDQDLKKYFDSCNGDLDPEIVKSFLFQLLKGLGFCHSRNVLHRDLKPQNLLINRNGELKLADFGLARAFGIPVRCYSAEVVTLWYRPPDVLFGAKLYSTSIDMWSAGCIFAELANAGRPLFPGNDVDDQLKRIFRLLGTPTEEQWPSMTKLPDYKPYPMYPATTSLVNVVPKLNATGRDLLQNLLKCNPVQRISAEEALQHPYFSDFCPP
CDK5/p25, sequence (Q15078 99-307 partner limits assumed, species assumed): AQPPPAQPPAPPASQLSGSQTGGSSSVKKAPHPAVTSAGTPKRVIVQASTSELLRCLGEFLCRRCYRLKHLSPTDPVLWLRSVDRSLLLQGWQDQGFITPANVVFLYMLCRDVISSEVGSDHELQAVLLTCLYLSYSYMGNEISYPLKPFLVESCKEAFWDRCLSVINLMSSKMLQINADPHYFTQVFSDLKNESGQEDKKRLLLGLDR
T2 sequence (P50750 whole entry): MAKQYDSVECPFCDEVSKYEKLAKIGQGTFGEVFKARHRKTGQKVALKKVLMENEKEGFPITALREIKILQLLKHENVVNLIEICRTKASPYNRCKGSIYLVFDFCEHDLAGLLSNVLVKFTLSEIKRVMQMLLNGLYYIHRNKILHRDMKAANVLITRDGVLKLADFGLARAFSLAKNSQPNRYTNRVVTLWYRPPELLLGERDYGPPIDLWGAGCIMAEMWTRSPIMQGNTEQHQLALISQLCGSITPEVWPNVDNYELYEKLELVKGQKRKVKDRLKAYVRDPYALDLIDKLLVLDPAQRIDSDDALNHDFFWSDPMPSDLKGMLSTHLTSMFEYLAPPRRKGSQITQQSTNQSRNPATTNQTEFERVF
T2 sequence (O60563 whole entry partner): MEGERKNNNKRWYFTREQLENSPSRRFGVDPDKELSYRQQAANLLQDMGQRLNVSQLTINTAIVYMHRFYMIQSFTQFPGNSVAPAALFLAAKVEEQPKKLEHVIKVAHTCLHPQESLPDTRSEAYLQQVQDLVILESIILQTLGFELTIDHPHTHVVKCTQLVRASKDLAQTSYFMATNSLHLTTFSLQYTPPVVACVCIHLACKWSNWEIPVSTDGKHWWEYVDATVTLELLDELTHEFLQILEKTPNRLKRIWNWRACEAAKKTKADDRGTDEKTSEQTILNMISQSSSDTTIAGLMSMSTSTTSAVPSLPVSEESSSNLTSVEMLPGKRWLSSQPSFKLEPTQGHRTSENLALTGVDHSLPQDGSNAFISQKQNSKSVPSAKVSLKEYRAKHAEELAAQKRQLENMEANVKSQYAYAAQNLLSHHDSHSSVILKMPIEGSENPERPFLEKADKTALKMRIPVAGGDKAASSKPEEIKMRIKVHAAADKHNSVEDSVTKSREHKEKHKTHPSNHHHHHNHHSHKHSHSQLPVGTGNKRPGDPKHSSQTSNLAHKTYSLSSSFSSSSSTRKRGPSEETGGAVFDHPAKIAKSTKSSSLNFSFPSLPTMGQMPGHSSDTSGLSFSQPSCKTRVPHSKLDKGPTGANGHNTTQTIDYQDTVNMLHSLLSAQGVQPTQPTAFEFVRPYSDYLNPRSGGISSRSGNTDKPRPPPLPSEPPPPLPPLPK
Method for CDK1/cyclin B: Controls were prepared with appropriate dilutions of dimethyl sulfoxide.
After incubating at 30° C. for 30 minutes, 25 μl aliquots of the supernatant were spotted onto filters made of Whatman P81 phosphocellulose paper and, 20 seconds later, the filters were washed 5 times (for at least 5 (five) minutes each time) in a solution of 10 ml of phosphoric acid/liter of water. The wet filters were subjected to counting in the presence of an ACS scintillation fluid from Amersham.

Consider `COc1ccnc2c1c(-c1ccnc(N)n1)cn2C` [Meriolin 9, 3-[(2-amino)pyrimidin-4-yl]-4-methoxy-1-methyl-1H-pyrrolo[2,3-b]pyridine], for which, on CDK1/cyclin B, the IC50 stood at 25000 nM.
As a reminder, the melting point is the temperature of the solid-liquid transition. Regarding `Nc1nccc(-c2c[nH]c3nccc(-c4ccccc4)c23)n1` [Meriolin 23, 3-[(2-amino)pyrimidin-4-yl]-4-phenyl-1H-pyrrolo[2,3-b]pyridine], the melting point was over 210 °C. For the same molecule, the IC50 at GSK-3α/β amounted to 80 nM. The IC50 on CDK5/p25 (setting [1]) stood at 7 nM. In addition, the IC50 in the data set on SH-SY5Y cells was determined as 88 nM. For the same molecule, the IC50 at CDK2/cyclin A was determined as 9 nM. Further, the IC50 at DYRK1A (setting [2]) came to 50 nM. Besides, the IC50 on CDK1/cyclin B was found to be 10 nM.
Turning to `Nc1nccc(-c2c[nH]c3nccc(Cl)c23)n1` [Meriolin 10, 3-[(2-amino)pyrimidin-4-yl]-4-chloro-1H-pyrrolo[2,3-b]pyridine], the IC50 against CK1δ/ε was found to be 3000 nM; against GSK-3α/β, 2000 nM; with SH-SY5Y cells, 1920 nM; at DYRK1A (setting [2]) it was 130 nM; on CDK1/cyclin B, 240 nM.
Consider `CCCCCc1ccnc2[nH]cc(-c3ccnc(N)n3)c12` [Meriolin 19, 3-[(2-amino)pyrimidin-4-yl]-4-pentyl-1H-pyrrolo[2,3-b]pyridine], for which the melting point is over 210 °C. The molecule also gave an IC50 against CK1δ/ε of 8100 nM. On GSK-3α/β, the IC50 came to 1750 nM. Besides, the IC50 on CDK5/p25 (setting [1]) is 200 nM. In the data set on SH-SY5Y cells, the IC50 came to 13000 nM. For the same molecule, the IC50 at CDK2/cyclin A was determined as 195 nM. Also, on DYRK1A (setting [2]), the IC50 turned out to be 56 nM. The IC50 at CDK1/cyclin B turned out to be 350 nM.
`Nc1nccc(-c2c[nH]c3nccc(CCc4ccccc4)c23)n1` [Meriolin 22, 3-[(2-amino)pyrimidin-4-yl]-4-phenethyl-1H-pyrrolo[2,3-b]pyridine] yielded a melting point of 196 to 198 °C. The IC50 on GSK-3α/β came to 800 nM. For the same molecule, the IC50 at CDK5/p25 (setting [1]) came to 130 nM. Besides, the IC50 in the data set with SH-SY5Y cells was found to be 2400 nM. Besides, the IC50 at CDK2/cyclin A was found to be 73 nM. Further, the IC50 on DYRK1A (setting [2]) is 73 nM. Besides, the IC50 on CDK1/cyclin B was 200 nM.
On to `Cn1cc(-c2ccnc(N)n2)c2c(O)ccnc21` [Meriolin 8, 3-[(2-amino)pyrimidin-4-yl]-4-hydroxy-1-methyl-1H-pyrrolo[2,3-b]pyridine], for which the IC50 was 2300 nM against CK1δ/ε; 4600 nM at GSK-3α/β; over 30000 nM in the data set on SH-SY5Y cells; 1200 nM at DYRK1A (setting [2]); 1200 nM on CDK1/cyclin B.
Consider `Nc1nccc(-c2c[nH]c3nccc(C#Cc4ccccc4)c23)n1` [Meriolin 21, 3-[(2-amino)pyrimidin-4-yl]-4-(phenyleth-1-ynyl)-1H-pyrrolo[2,3-b]pyridine], for which the melting point was over 210 °C.
In the case of `CCCC#Cc1ccnc2[nH]cc(-c3ccnc(N)n3)c12` [Meriolin 18, 3-[(2-amino)pyrimidin-4-yl]-4-(pent-1-ynyl)-1H-pyrrolo[2,3-b]pyridine], the IC50 turned out to be 1300 nM against CK1δ/ε; 82 nM against GSK-3α/β; 4.5 nM at CDK5/p25 (setting [1]); 100 nM in the data set on SH-SY5Y cells; 5 nM on CDK2/cyclin A; 20 nM at DYRK1A (setting [2]). Moreover, at CDK1/cyclin B, the IC50 was 11 nM.
Molecule `Nc1nccc(-c2c[nH]c3nccc(OCC4CCCCC4)c23)n1` [Meriolin 16, 3-[(2-amino)pyrimidin-4-yl]-4-(cyclohexylmethoxy)-1H-pyrrolo[2,3-b]pyridine] gave a melting point of over 210 °C. Further, the IC50 against CK1δ/ε was over 100 nM. On GSK-3α/β, the IC50 turned out to be 6 nM. The IC50 at CDK5/p25 (setting [1]) was 3 nM. The IC50 with SH-SY5Y cells was 22 nM. Besides, the IC50 on CDK2/cyclin A was 1.2 nM. Further, on DYRK1A (setting [2]), the IC50 turned out to be 45 nM. In addition, the IC50 on CDK1/cyclin B amounted to 2.2 nM.
With `COCCOc1ccnc2[nH]cc(-c3ccnc(N)n3)c12` [Meriolin 7, 3-(2-aminopyrimidin-4-yl)-4-(2-methoxyethoxyl)-1H-pyrrolo[2,3-b]pyridine], the IC50 was 100000 nM against CK1δ/ε; 63000 nM at GSK-3α/β; over 100000 nM with SH-SY5Y cells; over 10000 nM on CDK2/cyclin A; 35000 nM on CDK1/cyclin B.
In turn, `Nc1nccc(-c2c[nH]c3nccc(OC4CCCCC4)c23)n1` [Meriolin 17, 3-[(2-amino)pyrimidin-4-yl]-4-(cyclohexyloxy)-1H-pyrrolo[2,3-b]pyridine] yielded a melting point of over 210 °C. The IC50 against CK1δ/ε was over 100 nM. The same molecule had an IC50 against GSK-3α/β of 4.1 nM. On CDK5/p25 (setting [1]), the IC50 amounted to 2.1 nM. Further, the IC50 with SH-SY5Y cells stood at 27 nM. In addition, the IC50 at CDK2/cyclin A was 2.1 nM. In addition, at DYRK1A (setting [2]), the IC50 came to 26 nM. For the same molecule, the IC50 on CDK1/cyclin B is 2.9 nM.
With `COc1ccnc2[nH]cc(-c3ccnc(SC)n3)c12` [Meriolin 12, 4-methoxy-3-[2-(methylsulfanyl)pyrimidin-4-yl]-1H-pyrrolo[2,3-b]pyridine, reference compound], the IC50 against CK1δ/ε is 600 nM; at GSK-3α/β, 7000 nM; in the data set on SH-SY5Y cells, over 100000 nM; on DYRK1A (setting [2]), 1000 nM; on CDK1/cyclin B it was 1800 nM.
Consider `Oc1ccnc2[nH]cc(-c3ccncn3)c12` [Meriolin 13, 3-(pyrimidin-4-yl)-4-hydroxy-1H-pyrrolo[2,3-b]pyridine], for which the IC50 against GSK-3α/β was determined as 1800 nM; with SH-SY5Y cells, 28000 nM.
Regarding `CCCOc1ccnc2[nH]cc(-c3ccnc(N)n3)c12` [Meriolin 5, 3-[(2-amino)pyrimidin-4-yl]-4-propoxy-1H-pyrrolo[2,3-b]pyridine], the IC50 at CK1δ/ε turned out to be 200 nM; against GSK-3α/β, 25 nM; in the data set on SH-SY5Y cells it was 26 nM; at DYRK1A (setting [2]), 37 nM; at CDK1/cyclin B it was 7 nM.
With `Nc1nccc(-c2c3c(O)ccnc3n3c(N)nccc23)n1` [Variolin B, reference compound], the IC50 at CK1δ/ε worked out at 5 nM; against GSK-3α/β, 70 nM; at CDK5/p25, 90 nM; in the data set with SH-SY5Y cells, 240 nM; at CDK2/cyclin A it was 80 nM; against DYRK1A, 80 nM. Besides, the IC50 on CDK9/cyclin T came to 26 nM; at CDK1/cyclin B it was 60 nM.
Take `COc1ccnc2[nH]cc(-c3ccncn3)c12` [Meriolin 14, 4-methoxy-3-(pyrimidin-4-yl)-1H-pyrrolo[2,3-b]pyridine]: the IC50 against CK1δ/ε was 600 nM; against GSK-3α/β, 1100 nM; in the data set with SH-SY5Y cells, 10200 nM; on DYRK1A (setting [2]) it was 230 nM; on CDK1/cyclin B, 1300 nM.
For `CC(C)Oc1ccnc2[nH]cc(-c3ccnc(N)n3)c12` [Meriolin 6, 3-[(2-amino)pyrimidin-4-yl]-4-(1-methylethoxy)-1H-pyrrolo[2,3-b]pyridine], the IC50 at CK1δ/ε came to 140 nM; at GSK-3α/β, 21 nM; at CDK1/cyclin B, 8 nM.
`CCOc1ccnc2[nH]cc(-c3ccnc(N)n3)c12` [Meriolin 4, 3-[(2-amino)pyrimidin-4-yl]-4-ethoxy-1H-pyrrolo[2,3-b]pyridine]: the IC50 on CK1δ/ε is 100 nM; against GSK-3α/β, 30 nM; in the data set with SH-SY5Y cells it was 81 nM; at DYRK1A (setting [2]) it was 32 nM; on CDK1/cyclin B it was 10 nM.
With `COc1cc(Br)nc2[nH]cc(-c3ccnc(N)n3)c12` [Meriolin 4n, 3-[(2-amino)pyrimidin-4-yl]-6-bromo-4-methoxy-1H-pyrrolo[2,3-b]pyridine], the melting point is over 210 °C.
